Assay results reported in patent publication US8546385B2, “Benzoic pyrrolopyridine derivatives” (Laboratoires FOURNIER SA, priority 2010, dated 2013).
Like-named read-outs stand apart in the source and are kept apart here.

Assays:
[1] = target: hNurr1_RXRγFL (NURR-1/RXRγ heterodimer) (Homo sapiens, UniProt P48443); experiment: Transactivation test (luciferase reporter) in Cos-7 cells co-transfected with NURR-1-Gal4 and RXRγ; format: cell-based; conditions: percentage efficacy relative to the reference XCT0135908 at 2×10^−5 M (=100%), read-out: hNurr1_RXRγFL Eff (%)
hNurr1_RXRγFL (NURR-1/RXRγ heterodimer), sequence (P48443 whole entry, the tested form may be a part): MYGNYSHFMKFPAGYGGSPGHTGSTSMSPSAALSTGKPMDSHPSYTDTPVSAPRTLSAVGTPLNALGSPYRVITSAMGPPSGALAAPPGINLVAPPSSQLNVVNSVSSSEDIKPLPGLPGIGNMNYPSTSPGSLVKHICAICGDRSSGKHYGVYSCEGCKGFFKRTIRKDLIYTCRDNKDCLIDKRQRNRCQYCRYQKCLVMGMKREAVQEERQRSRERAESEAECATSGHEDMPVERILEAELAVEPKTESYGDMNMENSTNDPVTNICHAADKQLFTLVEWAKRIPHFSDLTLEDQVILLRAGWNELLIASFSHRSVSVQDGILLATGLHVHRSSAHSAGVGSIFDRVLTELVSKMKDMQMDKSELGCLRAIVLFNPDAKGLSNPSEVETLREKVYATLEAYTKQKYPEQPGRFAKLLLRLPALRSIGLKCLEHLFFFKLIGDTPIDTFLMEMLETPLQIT
hNurr1_RXRγFL (NURR-1/RXRγ heterodimer), sequence (P43354 whole entry partner, the tested form may be a part): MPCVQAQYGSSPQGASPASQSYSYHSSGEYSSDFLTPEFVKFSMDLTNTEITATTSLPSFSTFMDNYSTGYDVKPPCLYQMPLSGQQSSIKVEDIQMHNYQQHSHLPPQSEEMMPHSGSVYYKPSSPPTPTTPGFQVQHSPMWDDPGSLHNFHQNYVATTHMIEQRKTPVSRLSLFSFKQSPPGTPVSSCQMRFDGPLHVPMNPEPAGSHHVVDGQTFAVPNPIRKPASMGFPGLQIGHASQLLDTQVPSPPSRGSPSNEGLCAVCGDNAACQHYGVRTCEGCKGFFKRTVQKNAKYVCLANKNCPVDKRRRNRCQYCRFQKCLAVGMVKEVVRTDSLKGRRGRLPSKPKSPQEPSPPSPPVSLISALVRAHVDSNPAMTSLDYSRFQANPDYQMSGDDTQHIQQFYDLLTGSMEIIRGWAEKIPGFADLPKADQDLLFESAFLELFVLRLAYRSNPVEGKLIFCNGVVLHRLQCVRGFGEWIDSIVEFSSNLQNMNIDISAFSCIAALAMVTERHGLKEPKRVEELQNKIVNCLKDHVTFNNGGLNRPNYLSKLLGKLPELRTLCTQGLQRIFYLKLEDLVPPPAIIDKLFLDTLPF
Method: The ability of the compounds according to the invention to behave as activators of the heterodimers formed by the NURR-1 nuclear receptor and the RXR nuclear receptors was measured, by means of an in vitro test.
A transactivation test was used as a primary screening test. Cos-7 cells were co-transfected with a plasmid expressing a construct of the NURR-1-Ga14 human receptor, a plasmid expressing the RXR human receptor (RXRα or RXRγ receptor) and a reporter plasmid 5Gal4pGL3-TK-Luc. The transfections were performed using a chemical agent (Jet PEI).
The transfected cells were distributed into 384-well plates and left to stand for 24 hours.
After 24 hours, the culture medium was changed. The test products were added (final concentration of between 10^−4 and 3×10^−10 M) in the culture medium. After incubating overnight, the luciferase expression was measured after addition of “SteadyGlo” according to the manufacturer's instructions (Promega).
4-[[6-Methyl-2-phenyl-5-(2-propenyl)-4-pyrimidinyl]amino]benzoic acid (reference XCT0135908, described by Wallen-Mackenzie et al. 2003, Genes & Development 17: 3036-3047) at 2×10^−5 M (RXR agonist) was used as reference.
The levels of induction were calculated relative to the basal activity of each heterodimer. The results were expressed as a percentage of the level of induction relative to the level of induction obtained with the reference (the level of induction of the reference is arbitrarily equal to 100%).

[2] = target: hNurr1_RXRαFL (NURR-1/RXRα heterodimer) (Homo sapiens, UniProt P19793); experiment: Transactivation test (luciferase reporter) in Cos-7 cells co-transfected with NURR-1-Gal4 and RXRα; format: cell-based
hNurr1_RXRαFL (NURR-1/RXRα heterodimer), sequence (P19793 whole entry, the tested form may be a part): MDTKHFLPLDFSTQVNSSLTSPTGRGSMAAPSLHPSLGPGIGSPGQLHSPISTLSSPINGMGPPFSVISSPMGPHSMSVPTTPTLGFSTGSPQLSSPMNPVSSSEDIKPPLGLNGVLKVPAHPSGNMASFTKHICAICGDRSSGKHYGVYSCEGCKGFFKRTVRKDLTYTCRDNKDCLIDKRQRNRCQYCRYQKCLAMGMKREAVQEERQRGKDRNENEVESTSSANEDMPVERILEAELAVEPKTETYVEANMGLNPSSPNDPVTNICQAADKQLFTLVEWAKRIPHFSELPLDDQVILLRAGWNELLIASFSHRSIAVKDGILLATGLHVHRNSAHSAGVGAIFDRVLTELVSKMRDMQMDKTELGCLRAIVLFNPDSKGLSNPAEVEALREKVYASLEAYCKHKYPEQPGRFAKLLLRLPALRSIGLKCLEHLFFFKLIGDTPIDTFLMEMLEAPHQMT
hNurr1_RXRαFL (NURR-1/RXRα heterodimer), sequence (P43354 whole entry, further chain, the tested form may be a part): as the sequence (P43354 whole entry partner, the tested form may be a part) above
Method: The ability of the compounds according to the invention to behave as activators of the heterodimers formed by the NURR-1 nuclear receptor and the RXR nuclear receptors was measured, by means of an in vitro test. A transactivation test was used as a primary screening test. […] The transfections were performed using a chemical agent (Jet PEI). The transfected cells were distributed into 384-well plates and left to stand for 24 hours. After 24 hours, the culture medium was changed. […] After incubating overnight, the luciferase expression was measured after addition of “SteadyGlo” according to the manufacturer's instructions (Promega). […] The levels of induction were calculated relative to the basal activity of each heterodimer. The results were expressed as a percentage of the level of induction relative to the level of induction obtained with the reference (the level of induction of the reference is arbitrarily equal to 100%).

[3] = percentage efficacy relative to the reference XCT0135908 at 2×10^−5 M (=100%), read-out: hNurr1_RXRαFL Eff (%)

| SMILES | Emax [1] | Emax [2, 3] | Emax ([2]; COS-7, read-out: hNurr1_RXRαFL Eff (%), percentage efficacy relative to the reference XCT0135908 at 2×10^−5 M (=100%)) |
| --- | --- | --- | --- |
| CC(C)(C)c1cccc(S(=O)(=O)n2c(Cc3cccc(C(=O)O)c3)cc3cc(C(F)(F)F)ncc32)c1 [Example 2, 3-[[1-[[3-(1,1-dimethylethyl)phenyl]sulfonyl]-5-(trifluoromethyl)-1H-pyrrolo[2,3-c]pyridin-2-yl]methyl]-2-benzoic acid] | 86% | 70% | – |
| CC(C)c1ccc(S(=O)(=O)n2c(Cc3ccc(C(=O)O)cc3)cc3cc(Cl)cnc32)cc1 [Example 31, 4-[[5-chloro-1-[[4-(1-methylethyl)phenyl]sulfonyl]-1H-pyrrolo[2,3-b]pyridin-2-yl]methyl]benzoic acid] | 48% | – | 63% |
| CC(C)c1ccc(S(=O)(=O)n2c(Cc3ccc(C(=O)O)cc3)cc3nc(C(F)(F)F)ccc32)cc1 [Example 16, 4-[1-(4-(1-methylethyl)phenylsulfonyl)-5-trifluoromethyl-1H-pyrrolo[3,2-b]pyridin-2-ylmethyl]benzoic acid] | 53% | 68% | – |
| CC(C)c1ccc(S(=O)(=O)n2c(Cc3ccc(C(=O)O)cc3)cc3cc(Cl)ncc32)cc1 [Example 20, 4-[[5-chloro-1-[[4-(1-methylethyl)phenyl]sulfonyl]-1H-pyrrolo[2,3-c]pyridin-2-yl]methyl]benzoic acid] | 27% | 42% | – |
| CC(C)c1ccc(S(=O)(=O)n2c(Cc3ccc(C(=O)O)s3)cc3cc(Cl)cnc32)cc1 [Example 38, 5-[[1-[[4-(1,1-methylethyl)phenyl]sulfonyl]-5-chloro-1H-pyrrolo[2,3-b]pyridin-2-yl]methyl]thiophene-2-carboxylic acid] | – | 80% | – |
| CN1CCOc2ccc(S(=O)(=O)n3c(Cc4ccc(C(=O)O)cc4)cc4cc(C(F)(F)F)cnc43)cc21 [Example 18, 4-[[1-[(3,4-dihydro-4-methyl-2H-1,4-benzoxazin-6-yl)sulfonyl]-5-(trifluoromethyl)-1H-pyrrolo[2,3-b]pyridin-2-yl]methyl]benzoic acid] | 69% | 62% | – |
| CC(C)(C)c1cccc(S(=O)(=O)n2c(Cc3csc(C(=O)O)c3)cc3cc(C(F)(F)F)ncc32)c1 [Example 6, 4-[[1-[[3-(1,1-dimethylethyl)phenyl]sulfonyl]-5-(trifluoromethyl)-1H-pyrrolo[2,3-c]pyridin-2-yl]methyl]thiophene-2-carboxylic acid] | – | 137% | – |
| CC(C)(C)c1cccc(S(=O)(=O)n2c(Cc3ccc(C(=O)O)cc3)cc3cc(C(F)(F)F)cnc32)c1 [Example 28, 4-[[1-[[3-(1,1-dimethylethyl)phenyl]sulfonyl]-5-(trifluoromethyl)-1H-pyrrolo[2,3-b]pyridin-2-yl]methyl]benzoic acid] | 51% | 66% | – |
| CC(C)(C)c1cccc(S(=O)(=O)n2c(Cc3cc(C(=O)O)co3)cc3cc(C(F)(F)F)ncc32)c1 [Example 4, 5-[[1-[[3-(1,1-dimethylethyl)phenyl]sulfonyl]-5-(trifluoromethyl)-1H-pyrrolo[2,3-c]pyridin-2-yl]methyl]furan-3-carboxylic acid] | – | 104% | – |
| CN1CCOc2ccc(S(=O)(=O)n3c(Cc4ccc(C(=O)O)cc4)cc4cc(C(F)(F)F)ncc43)cc21 [Example 12, 4-[[1-[(3,4-dihydro-4-methyl-2H-1,4-benzoxazin-6-yl)sulfonyl]-5-(trifluoromethyl)-1H-pyrrolo[2,3-c]pyridin-2-yl]methyl]benzoic acid] | 75% | 81% | – |
| CC(C)c1ccc(S(=O)(=O)n2c(Cc3ccc(C(=O)O)cc3)cc3cc(C(F)(F)F)ncc32)cc1 [Example 14, 4-[[1-[[4-(1-methylethyl)phenyl]sulfonyl]-5-(trifluoromethyl)-1H-pyrrolo[2,3-c]pyridin-2-yl]methyl]benzoic acid] | 54% | 64% | – |
| CC(C)c1cccc(S(=O)(=O)n2c(Cc3ccc(C(=O)O)cc3)cc3cc(C(F)(F)F)cnc32)c1 [Example 25, 4-[[1-[[3-(1-methylethyl)phenyl]sulfonyl]-5-(trifluoromethyl)-1H-pyrrolo[2,3-b]pyridin-2-yl]methyl]benzoic acid] | 52% | 57% | – |
| CC(C)(C)c1cccc(S(=O)(=O)n2c(Cc3ccc(F)c(C(=O)O)c3)cc3cc(C(F)(F)F)ncc32)c1 [Example 7, 5-[[1-[[3-(1,1-dimethylethyl)phenyl]sulfonyl]-5-(trifluoromethyl)-1H-pyrrolo[2,3-c]pyridin-2-yl]methyl]-2-fluorobenzoic acid] | – | 119% | – |
| CC(C)(C)c1cccc(S(=O)(=O)n2c(Cc3cncc(C(=O)O)c3)cc3cc(C(F)(F)F)ncc32)c1 [Example 5, 5-[[1-[[3-(1,1-dimethylethyl)phenyl]sulfonyl]-5-(trifluoromethyl)-1H-pyrrolo[2,3-c]pyridin-2-yl]methyl]pyridine-3-carboxylic acid] | – | 94% | – |

Second part, led by results:

| Emax [1] | Emax [2, 3] | SMILES | Emax ([2]; COS-7, read-out: hNurr1_RXRαFL Eff (%), percentage efficacy relative to the reference XCT0135908 at 2×10^−5 M (=100%)) |
| --- | --- | --- | --- |
| 68% | 92% | CC(C)(C)c1cccc(S(=O)(=O)n2c(Cc3ccc(C(=O)O)cc3)cc3nc(C(F)(F)F)ccc32)c1 [Example 22, 4-[[1-[[3-(1,1-dimethylethyl)phenyl]sulfonyl]-5-(trifluoromethyl)-1H-pyrrolo[3,2-b]pyridin-2-yl]methyl]benzoic acid] | – |
| 64% | 67% | CC(C)(C)c1cccc(S(=O)(=O)n2c(Cc3ccc(C(=O)O)s3)cc3nc(C(F)(F)F)ccc32)c1 [Example 1, 5-[[1-[[3-(1,1-dimethylethyl)phenyl]sulfonyl]-5-(trifluoromethyl)-1H-pyrrolo[3,2-b]pyridin-2-yl]methyl]thiophene-2-carboxylic acid] | – |
| – | 51% | CC(C)(C)c1cccc(S(=O)(=O)n2c(Cc3ccc(C(=O)NS(C)(=O)=O)cc3)cc3nc(C(F)(F)F)ccc32)c1 [Example 39, N-{4-[1-(3-tert-butylbenzenesulfonyl)-5-trifluoromethyl-1H-pyrrolo[3,2-b]pyridin-2-ylmethyl]benzoyl}methanesulfonamide] | – |
| – | 92% | CCN(CC)C(=O)c1ccc(C(F)c2cc3nc(C(F)(F)F)ccc3n2S(=O)(=O)c2cccc(C(C)(C)C)c2)s1 (stereo not shown) [Example 33, 5-[[1-[[3-(1,1-dimethylethyl)phenyl]sulfonyl]-5-(trifluoromethyl)-1H-pyrrolo[3,2-b]pyridin-2-yl]fluoromethyl]-N,N-diethyl-2-thiophenecarboxamide] | – |
| – | 67% | Cc1c(Cc2ccc(C(=O)O)cc2)n(S(=O)(=O)c2cccc(C(C)(C)C)c2)c2ccc(C(F)(F)F)nc12 [Example 37, 4-[[1-[[3-(1,1-dimethylethyl)phenyl]sulfonyl]-3-methyl-5-(trifluoro-methyl)-1H-pyrrolo[3,2-b]pyridin-2-yl]methyl]benzoic acid] | – |
| – | 84% | CC(C)(C)c1cccc(S(=O)(=O)n2c(C(O)c3ccc(C(=O)O)s3)cc3nc(C(F)(F)F)ccc32)c1 (stereo not shown) [Example 32, 5-{hydroxy[1-(3-(1,1-dimethylethyl)phenylsulfonyl)-5-trifluoromethyl-1H-pyrrolo[3,2-b]pyridin-2-yl]methyl}thiophene-2-carboxylic acid] | – |
| 72% | 103% | CC(C)(C)c1cccc(S(=O)(=O)n2c(Cc3nc(C(=O)O)cs3)cc3nc(C(F)(F)F)ccc32)c1 [Example 8, 2-[[1-[[3-(1,1-dimethylethyl)phenyl]sulfonyl]-5-(trifluoromethyl)-1H-pyrrolo[3,2-b]pyridin-2-yl]methyl]thiazole-4-carboxylic acid] | – |
| – | 31% | CC(C)(C)c1cccc(S(=O)(=O)n2c(C(=O)c3ccc(C(=O)O)s3)cc3nc(C(F)(F)F)ccc32)c1 [Example 34, 5-{1-(3-(1,1-dimethylethyl)phenylsulfonyl)-5-trifluoromethyl-1H-pyrrolo[3,2-b]pyridine-2-carbonyl}thiophene-2-carboxylic acid] | – |
